In ChEMBL document CHEMBL5126566, “Comparison of three zinc binding groups for HDAC inhibitors - A potency, selectivity and enzymatic kinetics study” (Bioorg Med Chem Lett, 2022):
pIC50: −log10 of the molar value. Activity calls are given as the source filed them. No cut-off for these calls is given here.

How the values were obtained:
Histone deacetylase 1 [1] = biological target: T1, Histone deacetylase 1 (Homo sapiens, UniProt Q13547); test: Inhibition of HDAC1 (unknown origin) preincubated for 60 mins
T1 sequence (Q13547 whole entry): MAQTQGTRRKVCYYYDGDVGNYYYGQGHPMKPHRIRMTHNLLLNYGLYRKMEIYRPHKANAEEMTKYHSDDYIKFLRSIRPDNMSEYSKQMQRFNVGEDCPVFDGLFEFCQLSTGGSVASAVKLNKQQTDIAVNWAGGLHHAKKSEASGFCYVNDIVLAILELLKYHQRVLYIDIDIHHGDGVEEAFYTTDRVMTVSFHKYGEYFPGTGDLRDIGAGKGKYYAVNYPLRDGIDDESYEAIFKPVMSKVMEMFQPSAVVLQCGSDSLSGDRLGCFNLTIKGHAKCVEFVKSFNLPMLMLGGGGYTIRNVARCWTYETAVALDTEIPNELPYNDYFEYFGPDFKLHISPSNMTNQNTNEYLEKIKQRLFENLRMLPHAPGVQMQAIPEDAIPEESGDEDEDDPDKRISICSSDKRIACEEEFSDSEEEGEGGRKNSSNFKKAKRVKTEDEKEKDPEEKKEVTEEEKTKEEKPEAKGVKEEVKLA

Histone deacetylase 3 [2] = biological target: T2, Histone deacetylase 3 (Homo sapiens, UniProt O15379); test: Inhibition of HDAC3 (unknown origin) preincubated for 30 mins
T2 sequence (O15379 whole entry): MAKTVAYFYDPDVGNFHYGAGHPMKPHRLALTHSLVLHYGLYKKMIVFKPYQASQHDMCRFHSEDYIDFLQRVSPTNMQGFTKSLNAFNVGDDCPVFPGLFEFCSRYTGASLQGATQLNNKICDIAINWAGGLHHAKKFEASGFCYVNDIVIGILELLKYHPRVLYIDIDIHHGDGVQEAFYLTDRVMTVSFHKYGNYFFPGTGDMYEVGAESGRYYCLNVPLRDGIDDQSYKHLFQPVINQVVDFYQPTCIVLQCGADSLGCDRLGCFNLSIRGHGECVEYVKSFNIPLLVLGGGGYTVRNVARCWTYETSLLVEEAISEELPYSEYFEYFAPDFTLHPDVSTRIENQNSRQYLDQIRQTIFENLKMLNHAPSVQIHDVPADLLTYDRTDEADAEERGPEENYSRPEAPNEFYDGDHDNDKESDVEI

Histone deacetylase 3 [3] = biological target: T2, Histone deacetylase 3; test: Inhibition of HDAC3 (unknown origin) at 1 uM preincubated for 1 hr followed by 100-fold dilution and subsequent substrate addition measured after 1 hr; details: time 2.0 hrs
[4] = biological target: T3, Polyamine deacetylase HDAC10 (Homo sapiens, UniProt Q969S8); test: Inhibition of HDAC10 (unknown origin)
T3 sequence (Q969S8 whole entry): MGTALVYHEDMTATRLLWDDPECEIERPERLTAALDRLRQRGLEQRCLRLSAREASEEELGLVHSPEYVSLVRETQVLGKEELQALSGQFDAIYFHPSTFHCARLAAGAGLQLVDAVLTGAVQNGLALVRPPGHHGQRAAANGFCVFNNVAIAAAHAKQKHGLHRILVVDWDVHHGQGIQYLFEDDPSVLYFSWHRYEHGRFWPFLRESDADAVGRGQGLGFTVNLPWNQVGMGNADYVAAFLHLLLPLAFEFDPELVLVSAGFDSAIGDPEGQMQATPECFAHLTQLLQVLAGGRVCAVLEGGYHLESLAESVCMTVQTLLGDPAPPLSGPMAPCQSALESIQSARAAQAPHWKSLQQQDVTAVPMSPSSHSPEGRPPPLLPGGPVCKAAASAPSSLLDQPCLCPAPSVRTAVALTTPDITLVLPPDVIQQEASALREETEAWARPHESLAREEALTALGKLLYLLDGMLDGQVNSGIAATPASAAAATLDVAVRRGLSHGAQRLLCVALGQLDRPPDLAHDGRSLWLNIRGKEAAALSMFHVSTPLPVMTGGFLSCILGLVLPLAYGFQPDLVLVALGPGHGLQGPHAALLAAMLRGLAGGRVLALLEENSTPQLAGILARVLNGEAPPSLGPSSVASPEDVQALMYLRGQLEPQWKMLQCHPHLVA

Histone deacetylase 1 [5] = biological target: T1, Histone deacetylase 1; test: Inhibition of HDAC1 (unknown origin) preincubated for 90 mins
Histone deacetylase 9 = Histone deacetylase 9 (Homo sapiens, UniProt Q9UKV0); test: Inhibition of HDAC9 (unknown origin)
Chain of Histone deacetylase 9 (Q9UKV0 whole entry): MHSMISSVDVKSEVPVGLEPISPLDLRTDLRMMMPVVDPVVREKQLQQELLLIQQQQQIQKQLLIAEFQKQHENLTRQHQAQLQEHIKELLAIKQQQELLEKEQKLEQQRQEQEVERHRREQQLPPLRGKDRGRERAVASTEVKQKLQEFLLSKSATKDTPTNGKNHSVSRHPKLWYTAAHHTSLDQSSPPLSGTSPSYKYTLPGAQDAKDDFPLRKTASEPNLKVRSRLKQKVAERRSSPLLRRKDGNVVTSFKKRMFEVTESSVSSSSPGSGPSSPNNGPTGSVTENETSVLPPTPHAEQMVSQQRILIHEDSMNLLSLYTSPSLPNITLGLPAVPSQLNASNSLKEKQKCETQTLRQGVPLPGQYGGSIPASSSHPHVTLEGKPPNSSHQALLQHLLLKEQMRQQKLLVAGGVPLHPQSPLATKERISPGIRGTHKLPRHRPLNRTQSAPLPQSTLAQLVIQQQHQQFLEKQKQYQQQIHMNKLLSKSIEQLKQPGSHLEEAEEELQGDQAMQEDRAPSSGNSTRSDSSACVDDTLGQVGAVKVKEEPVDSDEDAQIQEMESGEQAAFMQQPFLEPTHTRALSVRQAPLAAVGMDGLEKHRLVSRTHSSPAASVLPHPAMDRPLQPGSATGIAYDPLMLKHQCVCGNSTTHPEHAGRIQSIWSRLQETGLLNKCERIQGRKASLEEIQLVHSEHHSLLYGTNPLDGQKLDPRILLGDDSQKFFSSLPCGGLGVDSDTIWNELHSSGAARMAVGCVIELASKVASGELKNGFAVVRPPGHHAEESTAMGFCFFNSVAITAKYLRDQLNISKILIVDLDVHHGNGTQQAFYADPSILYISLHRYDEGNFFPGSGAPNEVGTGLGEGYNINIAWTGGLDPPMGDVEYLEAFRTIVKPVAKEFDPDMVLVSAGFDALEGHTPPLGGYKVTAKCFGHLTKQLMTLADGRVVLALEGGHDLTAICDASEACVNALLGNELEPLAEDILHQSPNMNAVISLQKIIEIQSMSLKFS

Histone deacetylase 1 [6] = biological target: T1, Histone deacetylase 1; test: Inhibition of HDAC1 (unknown origin)
[7] = biological target: T4, Protein deacetylase HDAC6 (Homo sapiens, UniProt Q9UBN7); test: Inhibition of HDAC6 (unknown origin)
T4 sequence (Q9UBN7 whole entry): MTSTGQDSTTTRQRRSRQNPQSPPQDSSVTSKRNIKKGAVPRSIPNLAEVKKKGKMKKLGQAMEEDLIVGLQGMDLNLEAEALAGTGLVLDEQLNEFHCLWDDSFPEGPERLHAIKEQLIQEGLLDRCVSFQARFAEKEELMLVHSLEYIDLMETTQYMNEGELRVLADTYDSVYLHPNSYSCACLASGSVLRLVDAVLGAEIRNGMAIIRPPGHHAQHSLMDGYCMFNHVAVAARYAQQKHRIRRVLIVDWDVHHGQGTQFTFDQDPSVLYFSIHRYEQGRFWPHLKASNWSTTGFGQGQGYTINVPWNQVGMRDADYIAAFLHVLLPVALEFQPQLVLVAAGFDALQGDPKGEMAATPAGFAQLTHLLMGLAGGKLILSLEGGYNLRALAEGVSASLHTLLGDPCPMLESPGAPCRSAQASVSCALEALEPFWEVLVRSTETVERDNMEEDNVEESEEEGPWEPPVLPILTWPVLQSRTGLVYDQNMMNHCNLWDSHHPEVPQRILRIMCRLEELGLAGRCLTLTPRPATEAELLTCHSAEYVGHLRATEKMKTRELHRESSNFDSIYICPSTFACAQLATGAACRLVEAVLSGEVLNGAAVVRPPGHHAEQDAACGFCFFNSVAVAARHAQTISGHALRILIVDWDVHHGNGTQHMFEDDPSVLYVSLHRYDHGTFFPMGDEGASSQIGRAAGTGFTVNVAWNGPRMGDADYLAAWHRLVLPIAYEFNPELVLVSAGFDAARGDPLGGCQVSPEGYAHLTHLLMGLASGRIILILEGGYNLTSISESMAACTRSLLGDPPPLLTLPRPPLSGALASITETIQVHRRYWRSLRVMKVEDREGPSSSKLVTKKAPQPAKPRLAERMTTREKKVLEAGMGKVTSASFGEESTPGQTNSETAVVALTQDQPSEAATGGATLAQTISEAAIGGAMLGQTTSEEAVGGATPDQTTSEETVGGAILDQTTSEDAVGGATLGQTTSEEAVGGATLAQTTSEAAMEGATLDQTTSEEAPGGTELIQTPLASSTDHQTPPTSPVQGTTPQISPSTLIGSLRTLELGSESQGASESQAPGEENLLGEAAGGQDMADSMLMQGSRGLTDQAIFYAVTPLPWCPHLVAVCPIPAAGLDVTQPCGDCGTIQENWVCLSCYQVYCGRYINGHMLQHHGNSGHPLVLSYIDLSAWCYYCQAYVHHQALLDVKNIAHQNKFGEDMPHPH

Histone deacetylase 1 [8] = biological target: T1, Histone deacetylase 1; test: Inhibition of HDAC1 (unknown origin) preincubated for 120 mins
Histone deacetylase 5 = Histone deacetylase 5 (Homo sapiens, UniProt Q9UQL6); test: Inhibition of HDAC5 (unknown origin)
Chain of Histone deacetylase 5 (Q9UQL6 whole entry): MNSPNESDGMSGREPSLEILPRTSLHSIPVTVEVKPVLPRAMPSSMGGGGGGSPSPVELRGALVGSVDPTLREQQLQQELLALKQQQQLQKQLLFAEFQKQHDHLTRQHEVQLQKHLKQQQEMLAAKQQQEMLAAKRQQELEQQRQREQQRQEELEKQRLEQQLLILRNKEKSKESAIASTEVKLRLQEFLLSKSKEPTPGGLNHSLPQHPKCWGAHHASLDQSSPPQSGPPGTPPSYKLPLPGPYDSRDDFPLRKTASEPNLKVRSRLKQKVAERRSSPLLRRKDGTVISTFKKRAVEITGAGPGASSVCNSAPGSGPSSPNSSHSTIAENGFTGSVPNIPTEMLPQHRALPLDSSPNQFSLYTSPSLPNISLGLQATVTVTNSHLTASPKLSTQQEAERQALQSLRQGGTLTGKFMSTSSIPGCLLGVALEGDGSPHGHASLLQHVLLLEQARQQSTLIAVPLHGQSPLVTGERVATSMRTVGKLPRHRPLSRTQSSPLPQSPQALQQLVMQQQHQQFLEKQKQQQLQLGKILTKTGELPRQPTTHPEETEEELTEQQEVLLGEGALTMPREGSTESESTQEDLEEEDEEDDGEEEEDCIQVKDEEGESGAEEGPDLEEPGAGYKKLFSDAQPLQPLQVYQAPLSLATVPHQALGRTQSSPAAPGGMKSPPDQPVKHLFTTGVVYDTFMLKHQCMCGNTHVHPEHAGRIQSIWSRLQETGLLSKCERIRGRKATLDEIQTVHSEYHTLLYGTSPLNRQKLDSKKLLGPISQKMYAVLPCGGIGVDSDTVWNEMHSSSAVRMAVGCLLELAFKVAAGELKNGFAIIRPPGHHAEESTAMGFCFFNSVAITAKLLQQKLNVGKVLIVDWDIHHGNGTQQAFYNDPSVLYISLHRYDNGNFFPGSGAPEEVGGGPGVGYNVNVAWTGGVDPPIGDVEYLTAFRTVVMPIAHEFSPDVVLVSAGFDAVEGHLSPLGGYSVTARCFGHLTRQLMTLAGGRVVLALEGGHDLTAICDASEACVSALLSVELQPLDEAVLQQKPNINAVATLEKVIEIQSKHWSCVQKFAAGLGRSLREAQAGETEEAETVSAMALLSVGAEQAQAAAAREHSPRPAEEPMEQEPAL

Histone deacetylase 1 [9] = biological target: T1, Histone deacetylase 1; test: Inhibition of HDAC1 (unknown origin) preincubated for 30 mins
Histone deacetylase 3 [10] = biological target: T2, Histone deacetylase 3; test: Inhibition of HDAC3 (unknown origin) preincubated for 60 mins
Histone deacetylase 11 = biological target: T5, Histone deacetylase 11 (Homo sapiens, UniProt Q96DB2); test: Inhibition of HDAC11 (unknown origin)
T5 sequence (Q96DB2 whole entry): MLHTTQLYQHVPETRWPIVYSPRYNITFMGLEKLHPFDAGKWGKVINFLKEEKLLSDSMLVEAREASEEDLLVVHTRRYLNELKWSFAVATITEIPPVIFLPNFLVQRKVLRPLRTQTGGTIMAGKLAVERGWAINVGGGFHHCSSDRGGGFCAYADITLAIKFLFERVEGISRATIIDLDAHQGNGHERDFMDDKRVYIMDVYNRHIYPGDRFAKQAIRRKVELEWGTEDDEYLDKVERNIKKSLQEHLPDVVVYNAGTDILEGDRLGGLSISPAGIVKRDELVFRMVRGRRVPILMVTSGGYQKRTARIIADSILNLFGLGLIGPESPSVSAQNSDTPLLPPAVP

Histone deacetylase 8 = biological target: T6, Histone deacetylase 8 (Homo sapiens, UniProt Q9BY41); test: Inhibition of HDAC8 (unknown origin)
T6 sequence (Q9BY41 whole entry): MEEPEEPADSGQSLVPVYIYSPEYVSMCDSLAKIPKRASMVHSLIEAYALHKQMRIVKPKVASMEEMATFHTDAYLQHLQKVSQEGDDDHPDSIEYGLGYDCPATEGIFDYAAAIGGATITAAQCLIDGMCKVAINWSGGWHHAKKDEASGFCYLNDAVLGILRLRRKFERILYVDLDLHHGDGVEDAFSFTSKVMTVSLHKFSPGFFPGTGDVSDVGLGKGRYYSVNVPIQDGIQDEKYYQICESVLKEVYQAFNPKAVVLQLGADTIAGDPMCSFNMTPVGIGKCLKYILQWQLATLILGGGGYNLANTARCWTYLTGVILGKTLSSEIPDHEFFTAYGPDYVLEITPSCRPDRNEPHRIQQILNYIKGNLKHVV

[11] = biological target: Histone deacetylase (Homo sapiens) (UniProt Q13547+O15379+Q9UBN7+Q92769+Q9UQL6+Q8WUI4+Q9BY41+Q96DB2+P56524+Q9UKV0+Q969S8); test: Inhibition of HDAC in human MV4-11 cells assessed as histone H3 acetylation preincubated for 3 hrs followed by compound washout and measured after 6 hrs by Western blot analysis; format: cell-based
Histone deacetylase 3 [12] = biological target: T2, Histone deacetylase 3; test: Inhibition of HDAC3 (unknown origin) preincubated for 90 mins
Histone deacetylase 4 = Histone deacetylase 4 (Homo sapiens, UniProt P56524); test: Inhibition of HDAC4 (unknown origin)
Chain of Histone deacetylase 4 (P56524 whole entry): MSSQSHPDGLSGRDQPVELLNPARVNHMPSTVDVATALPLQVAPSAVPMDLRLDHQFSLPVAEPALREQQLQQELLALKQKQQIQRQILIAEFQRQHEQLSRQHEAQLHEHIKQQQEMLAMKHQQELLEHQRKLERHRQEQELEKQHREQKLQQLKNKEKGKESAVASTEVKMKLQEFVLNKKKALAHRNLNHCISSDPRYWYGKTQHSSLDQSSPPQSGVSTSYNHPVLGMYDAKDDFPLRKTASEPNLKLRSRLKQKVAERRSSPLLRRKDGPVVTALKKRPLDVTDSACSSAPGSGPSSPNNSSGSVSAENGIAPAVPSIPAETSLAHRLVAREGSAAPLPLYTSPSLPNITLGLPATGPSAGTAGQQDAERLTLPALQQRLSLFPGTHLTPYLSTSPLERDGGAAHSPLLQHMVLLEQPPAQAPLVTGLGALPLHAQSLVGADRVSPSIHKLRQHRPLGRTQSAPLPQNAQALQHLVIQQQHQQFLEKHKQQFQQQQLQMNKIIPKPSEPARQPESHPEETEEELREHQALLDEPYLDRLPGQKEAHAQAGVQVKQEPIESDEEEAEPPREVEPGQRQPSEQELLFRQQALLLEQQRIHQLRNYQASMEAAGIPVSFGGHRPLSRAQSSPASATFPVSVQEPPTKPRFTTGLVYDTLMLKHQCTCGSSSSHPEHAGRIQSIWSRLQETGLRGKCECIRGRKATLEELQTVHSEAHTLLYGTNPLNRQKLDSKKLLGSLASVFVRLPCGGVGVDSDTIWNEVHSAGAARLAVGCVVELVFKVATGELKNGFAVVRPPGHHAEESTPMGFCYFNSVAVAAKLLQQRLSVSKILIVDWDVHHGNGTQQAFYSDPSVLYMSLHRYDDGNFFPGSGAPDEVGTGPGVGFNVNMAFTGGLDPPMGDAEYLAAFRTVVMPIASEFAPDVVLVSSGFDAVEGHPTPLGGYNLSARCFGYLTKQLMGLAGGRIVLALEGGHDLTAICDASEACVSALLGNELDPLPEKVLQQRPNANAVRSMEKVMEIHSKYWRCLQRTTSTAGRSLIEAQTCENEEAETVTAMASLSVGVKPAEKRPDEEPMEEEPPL

Histone deacetylase 2 [13] = biological target: T7, Histone deacetylase 2 (Homo sapiens, UniProt Q92769); test: Inhibition of HDAC2 (unknown origin) preincubated for 120 mins
T7 sequence (Q92769 whole entry): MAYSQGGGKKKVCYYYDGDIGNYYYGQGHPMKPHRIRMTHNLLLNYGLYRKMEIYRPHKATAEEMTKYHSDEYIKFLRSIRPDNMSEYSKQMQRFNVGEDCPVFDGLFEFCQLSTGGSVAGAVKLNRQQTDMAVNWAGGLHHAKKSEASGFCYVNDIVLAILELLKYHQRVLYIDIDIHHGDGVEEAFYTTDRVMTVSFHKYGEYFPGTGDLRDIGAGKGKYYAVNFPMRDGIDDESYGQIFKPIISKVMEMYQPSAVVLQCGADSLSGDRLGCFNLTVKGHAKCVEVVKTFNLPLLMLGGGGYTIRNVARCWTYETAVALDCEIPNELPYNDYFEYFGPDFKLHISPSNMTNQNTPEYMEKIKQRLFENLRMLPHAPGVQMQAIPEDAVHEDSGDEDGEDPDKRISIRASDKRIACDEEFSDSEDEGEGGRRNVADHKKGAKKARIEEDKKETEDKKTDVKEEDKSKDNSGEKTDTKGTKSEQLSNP

Histone deacetylase 3 [14] = biological target: T2, Histone deacetylase 3; test: Mixed-type inhibition of HDAC3 (unknown origin) at 17.8 to 60 nM by Lineweaver-Burk plot analysis; details: dose 17.8-60 nM
Histone deacetylase 2 [15] = biological target: T7, Histone deacetylase 2; test: Inhibition of HDAC2 (unknown origin) preincubated for 60 mins
MV4-11 = test: Antiproliferative activity against human MV4-11 cells; format: functional, cell-based
Histone deacetylase 7 = biological target: T8, Histone deacetylase 7 (Homo sapiens, UniProt Q8WUI4); test: Inhibition of HDAC7 (unknown origin)
T8 sequence (Q8WUI4 whole entry): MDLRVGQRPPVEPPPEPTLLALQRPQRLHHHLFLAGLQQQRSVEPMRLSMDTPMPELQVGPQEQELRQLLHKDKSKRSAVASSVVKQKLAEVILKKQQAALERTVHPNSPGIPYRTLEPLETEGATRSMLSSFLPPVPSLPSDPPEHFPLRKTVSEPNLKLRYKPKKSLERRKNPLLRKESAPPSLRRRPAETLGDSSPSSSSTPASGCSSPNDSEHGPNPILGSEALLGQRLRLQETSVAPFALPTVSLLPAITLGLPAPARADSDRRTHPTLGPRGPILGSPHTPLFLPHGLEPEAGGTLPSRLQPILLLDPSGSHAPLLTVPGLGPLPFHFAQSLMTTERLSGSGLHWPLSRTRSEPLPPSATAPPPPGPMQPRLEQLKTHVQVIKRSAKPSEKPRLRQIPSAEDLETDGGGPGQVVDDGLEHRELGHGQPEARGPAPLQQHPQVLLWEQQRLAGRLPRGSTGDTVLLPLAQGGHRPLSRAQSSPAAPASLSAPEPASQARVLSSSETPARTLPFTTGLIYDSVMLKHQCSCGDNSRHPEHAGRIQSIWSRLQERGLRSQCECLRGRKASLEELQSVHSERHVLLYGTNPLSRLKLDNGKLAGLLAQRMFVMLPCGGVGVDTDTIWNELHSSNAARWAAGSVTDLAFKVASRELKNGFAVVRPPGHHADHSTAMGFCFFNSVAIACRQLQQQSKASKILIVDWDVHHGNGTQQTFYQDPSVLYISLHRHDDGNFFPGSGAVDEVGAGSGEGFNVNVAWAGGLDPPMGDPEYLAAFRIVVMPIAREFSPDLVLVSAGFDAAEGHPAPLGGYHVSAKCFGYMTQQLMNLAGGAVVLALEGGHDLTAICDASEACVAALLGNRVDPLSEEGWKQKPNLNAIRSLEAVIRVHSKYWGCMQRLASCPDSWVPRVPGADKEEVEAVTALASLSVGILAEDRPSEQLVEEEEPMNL

Histone deacetylase 2 [16] = biological target: T7, Histone deacetylase 2; test: Inhibition of HDAC2 (unknown origin) preincubated for 5 mins
Histone deacetylase 1 [17] = biological target: T1, Histone deacetylase 1; test: Inhibition of HDAC1 (unknown origin) preincubated for 5 mins
Histone deacetylase 2 [18] = biological target: T7, Histone deacetylase 2; test: Inhibition of HDAC2 (unknown origin) preincubated for 30 mins
Histone deacetylase 2 [19] = biological target: T7, Histone deacetylase 2; test: Mixed-type inhibition of HDAC2 (unknown origin) at 17.8 to 60 nM by Lineweaver-Burk plot analysis; details: dose 17.8-60 nM
Histone deacetylase 2 [20] = biological target: T7, Histone deacetylase 2; test: Inhibition of HDAC2 (unknown origin)
Histone deacetylase 3 [21] = biological target: T2, Histone deacetylase 3; test: Inhibition of HDAC3 (unknown origin) preincubated for 120 mins
Histone deacetylase 1 [22] = biological target: T1, Histone deacetylase 1; test: Mixed-type inhibition of HDAC1 (unknown origin) at 17.8 to 60 nM by Lineweaver-Burk plot analysis; details: dose 17.8-60 nM
Histone deacetylase 2 [23] = biological target: T7, Histone deacetylase 2; test: Inhibition of HDAC2 (unknown origin) preincubated for 90 mins
Histone deacetylase 3 [24] = biological target: T2, Histone deacetylase 3; test: Inhibition of HDAC3 (unknown origin) preincubated for 5 mins
Histone deacetylase 2 [25] = biological target: T7, Histone deacetylase 2; test: Inhibition of HDAC2 (unknown origin) at 1 uM preincubated for 1 hr followed by 100-fold dilution and subsequent substrate addition measured after 1 hr; details: time 2.0 hrs
Histone deacetylase 3 [26] = biological target: T2, Histone deacetylase 3; test: Inhibition of HDAC3 (unknown origin)
Histone deacetylase 1 [27] = biological target: T1, Histone deacetylase 1; test: Inhibition of HDAC1 (unknown origin) at 1 uM preincubated for 1 hr followed by 100-fold dilution and subsequent substrate addition measured after 1 hr; details: time 2.0 hrs

For `CCCNNC(=O)CCCCCCC(=O)Nc1ccccc1`, the pIC50 (Histone deacetylase 1 [1]) was 7.20, the pIC50 (Histone deacetylase 3 [2]) was 7.52 and the inhibition (Histone deacetylase 3 [3]) was “Active”. For the same compound, the pIC50 [4] was under 5.00, the pIC50 (Histone deacetylase 1 [5]) was 7.38 and the pIC50 (Histone deacetylase 9) was under 5.00. It also gave a pIC50 (Histone deacetylase 1 [6]) of 7.34, a pIC50 [7] of under 5.00 and a pIC50 (Histone deacetylase 1 [8]) of 7.32. It also gave a pIC50 (Histone deacetylase 5) of under 5.00, a pIC50 (Histone deacetylase 1 [9]) of 7.05 and a pIC50 (Histone deacetylase 3 [10]) of 7.64. The pIC50 (Histone deacetylase 11) was under 5.00, the pIC50 (Histone deacetylase 8) was under 5.00 and the inhibition [11] was “Active”. The pIC50 (Histone deacetylase 3 [12]) was 7.76, the pIC50 (Histone deacetylase 4) was under 5.00 and the pIC50 (Histone deacetylase 2 [13]) was 6.84. The inhibition (Histone deacetylase 3 [14]) was “Active”, the pIC50 (Histone deacetylase 2 [15]) was 6.67 and the pIC50 (MV4-11) was 6.23. It also gave a pIC50 (Histone deacetylase 7) of under 5.00, a pIC50 (Histone deacetylase 2 [16]) of 6.39 and a pIC50 (Histone deacetylase 1 [17]) of 6.76. For the same compound, the pIC50 (Histone deacetylase 2 [18]) was 6.52, the inhibition (Histone deacetylase 2 [19]) was “Active” and the pIC50 (Histone deacetylase 2 [20]) was 6.90. For the same compound, the pIC50 (Histone deacetylase 3 [21]) was 7.75, the inhibition (Histone deacetylase 1 [22]) was “Active” and the pIC50 (Histone deacetylase 2 [23]) was 6.79. The pIC50 (Histone deacetylase 3 [24]) was 7.23, the inhibition (Histone deacetylase 2 [25]) was “Active” and the pIC50 (Histone deacetylase 3 [26]) was 7.69. The inhibition (Histone deacetylase 1 [27]) was “Active”.
